Experimental data taken from ChEMBL document CHEMBL4507276 (2021).

Experiments:
[1] = target: Serine/threonine-protein kinase BRSK2 (Homo sapiens) (UniProt Q8IWQ3); conditions: Compound concentration 1000.0 nM
[2] = target: Serine/threonine-protein kinase WNK1 (Homo sapiens) (UniProt Q9H4A3); conditions: Compound concentration 1000.0 nM
[3] = target: Homeodomain-interacting protein kinase 1 (Homo sapiens) (UniProt Q86Z02); conditions: Compound concentration 1000.0 nM
[4] = target: T1, 5-hydroxytryptamine receptor 1A (Homo sapiens) (UniProt P08908); conditions: Compound concentration 10.0 uM
T1 sequence (whole entry): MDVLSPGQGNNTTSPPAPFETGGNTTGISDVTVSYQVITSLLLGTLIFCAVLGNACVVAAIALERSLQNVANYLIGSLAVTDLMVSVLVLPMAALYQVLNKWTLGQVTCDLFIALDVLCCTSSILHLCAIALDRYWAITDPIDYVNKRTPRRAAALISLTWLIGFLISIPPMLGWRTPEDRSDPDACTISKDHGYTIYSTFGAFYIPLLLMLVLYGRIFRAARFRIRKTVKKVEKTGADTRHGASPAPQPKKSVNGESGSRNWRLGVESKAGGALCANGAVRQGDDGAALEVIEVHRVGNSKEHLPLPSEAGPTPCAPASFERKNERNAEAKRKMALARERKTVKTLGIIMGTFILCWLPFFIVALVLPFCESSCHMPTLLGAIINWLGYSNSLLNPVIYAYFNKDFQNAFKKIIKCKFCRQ

[5] = target: T2, Ephrin type-B receptor 3 (Homo sapiens) (UniProt P54753); conditions: Compound concentration 1000.0 nM
T2 sequence (whole entry): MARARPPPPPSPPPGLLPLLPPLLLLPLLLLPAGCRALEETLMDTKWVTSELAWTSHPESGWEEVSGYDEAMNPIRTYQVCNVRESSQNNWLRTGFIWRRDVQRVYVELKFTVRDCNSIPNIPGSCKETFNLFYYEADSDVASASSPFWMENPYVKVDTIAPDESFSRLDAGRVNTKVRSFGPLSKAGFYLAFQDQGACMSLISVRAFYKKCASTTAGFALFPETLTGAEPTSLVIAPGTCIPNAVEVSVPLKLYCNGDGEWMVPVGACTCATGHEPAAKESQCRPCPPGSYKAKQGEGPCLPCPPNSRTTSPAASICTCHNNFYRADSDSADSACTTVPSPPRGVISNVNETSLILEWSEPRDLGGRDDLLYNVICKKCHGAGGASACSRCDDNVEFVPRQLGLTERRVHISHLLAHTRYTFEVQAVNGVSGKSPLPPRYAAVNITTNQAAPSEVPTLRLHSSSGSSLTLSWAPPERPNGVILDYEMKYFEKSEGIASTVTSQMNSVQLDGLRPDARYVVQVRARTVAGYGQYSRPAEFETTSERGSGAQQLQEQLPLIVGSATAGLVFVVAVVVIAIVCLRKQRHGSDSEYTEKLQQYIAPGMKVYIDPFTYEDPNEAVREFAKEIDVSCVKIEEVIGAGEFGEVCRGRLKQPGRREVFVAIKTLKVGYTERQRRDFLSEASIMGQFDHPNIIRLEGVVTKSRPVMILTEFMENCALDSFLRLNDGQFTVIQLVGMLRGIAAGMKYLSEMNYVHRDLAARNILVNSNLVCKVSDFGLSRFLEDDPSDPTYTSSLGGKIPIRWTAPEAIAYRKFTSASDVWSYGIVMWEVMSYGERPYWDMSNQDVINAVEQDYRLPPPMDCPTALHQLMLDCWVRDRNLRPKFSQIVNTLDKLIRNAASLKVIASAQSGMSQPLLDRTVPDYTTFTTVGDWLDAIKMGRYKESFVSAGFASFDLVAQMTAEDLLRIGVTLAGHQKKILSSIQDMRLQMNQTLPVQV

[6] = target: T3, Serine/threonine-protein kinase BRSK1 (Homo sapiens) (UniProt Q8TDC3); conditions: Compound concentration 1000.0 nM
T3 sequence (whole entry): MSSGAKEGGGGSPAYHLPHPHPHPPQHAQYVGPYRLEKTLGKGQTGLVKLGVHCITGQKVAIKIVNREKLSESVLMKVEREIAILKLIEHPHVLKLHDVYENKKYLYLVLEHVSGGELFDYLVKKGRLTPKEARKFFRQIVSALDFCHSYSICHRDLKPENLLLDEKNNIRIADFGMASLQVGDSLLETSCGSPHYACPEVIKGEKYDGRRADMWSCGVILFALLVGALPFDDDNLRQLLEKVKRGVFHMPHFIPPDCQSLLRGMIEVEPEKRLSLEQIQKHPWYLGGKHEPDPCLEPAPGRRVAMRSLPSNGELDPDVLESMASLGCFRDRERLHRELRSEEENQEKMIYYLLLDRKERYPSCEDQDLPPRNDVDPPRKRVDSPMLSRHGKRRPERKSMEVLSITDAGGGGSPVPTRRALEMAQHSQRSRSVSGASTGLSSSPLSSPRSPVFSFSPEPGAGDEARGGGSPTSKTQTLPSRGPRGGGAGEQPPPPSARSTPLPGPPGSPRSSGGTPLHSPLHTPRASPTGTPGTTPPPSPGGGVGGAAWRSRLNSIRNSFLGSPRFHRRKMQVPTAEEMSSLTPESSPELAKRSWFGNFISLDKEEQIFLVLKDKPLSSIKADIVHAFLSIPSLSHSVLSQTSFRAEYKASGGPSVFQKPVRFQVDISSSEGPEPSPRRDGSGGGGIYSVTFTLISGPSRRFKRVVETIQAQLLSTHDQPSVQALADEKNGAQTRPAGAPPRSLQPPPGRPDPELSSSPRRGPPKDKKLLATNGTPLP

[7] = target: Interleukin-1 receptor-associated kinase 3 (Homo sapiens) (UniProt Q9Y616); conditions: Compound concentration 1000.0 nM
Sequence of Interleukin-1 receptor-associated kinase 3 (Homo sapiens) (Q9Y616 whole entry): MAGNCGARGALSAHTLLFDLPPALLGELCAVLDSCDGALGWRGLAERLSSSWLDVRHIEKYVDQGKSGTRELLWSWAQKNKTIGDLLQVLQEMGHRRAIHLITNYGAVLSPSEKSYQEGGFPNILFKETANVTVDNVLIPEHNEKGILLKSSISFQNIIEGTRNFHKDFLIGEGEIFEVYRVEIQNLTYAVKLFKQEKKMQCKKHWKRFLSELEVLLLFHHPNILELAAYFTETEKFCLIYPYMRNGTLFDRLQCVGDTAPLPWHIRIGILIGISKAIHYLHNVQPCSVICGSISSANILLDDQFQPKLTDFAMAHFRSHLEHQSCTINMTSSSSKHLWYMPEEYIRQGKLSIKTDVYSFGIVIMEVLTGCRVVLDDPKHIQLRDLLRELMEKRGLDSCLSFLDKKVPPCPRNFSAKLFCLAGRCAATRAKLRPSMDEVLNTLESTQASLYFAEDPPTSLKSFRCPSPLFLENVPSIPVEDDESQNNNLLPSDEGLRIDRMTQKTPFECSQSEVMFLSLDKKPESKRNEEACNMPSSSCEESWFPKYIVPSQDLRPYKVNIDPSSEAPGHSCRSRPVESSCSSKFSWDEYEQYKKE

[8] = target: T4, 5-hydroxytryptamine receptor 2C (Homo sapiens) (UniProt P28335); conditions: Compound concentration 10.0 uM
T4 sequence (whole entry): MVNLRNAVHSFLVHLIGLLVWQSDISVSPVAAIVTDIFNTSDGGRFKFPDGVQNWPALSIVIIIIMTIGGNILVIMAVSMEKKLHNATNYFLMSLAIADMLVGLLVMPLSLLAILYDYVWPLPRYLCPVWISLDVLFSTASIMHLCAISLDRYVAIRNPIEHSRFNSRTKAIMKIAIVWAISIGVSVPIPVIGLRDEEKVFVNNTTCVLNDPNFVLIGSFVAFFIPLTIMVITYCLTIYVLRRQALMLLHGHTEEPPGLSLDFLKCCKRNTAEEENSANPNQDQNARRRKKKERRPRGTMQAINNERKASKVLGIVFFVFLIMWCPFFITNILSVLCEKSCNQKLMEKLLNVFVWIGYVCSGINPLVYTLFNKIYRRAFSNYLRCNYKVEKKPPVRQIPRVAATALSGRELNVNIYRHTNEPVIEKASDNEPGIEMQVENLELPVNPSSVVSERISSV

Sequence of Serine/threonine-protein kinase BRSK2 (Homo sapiens) (Q8IWQ3 whole entry): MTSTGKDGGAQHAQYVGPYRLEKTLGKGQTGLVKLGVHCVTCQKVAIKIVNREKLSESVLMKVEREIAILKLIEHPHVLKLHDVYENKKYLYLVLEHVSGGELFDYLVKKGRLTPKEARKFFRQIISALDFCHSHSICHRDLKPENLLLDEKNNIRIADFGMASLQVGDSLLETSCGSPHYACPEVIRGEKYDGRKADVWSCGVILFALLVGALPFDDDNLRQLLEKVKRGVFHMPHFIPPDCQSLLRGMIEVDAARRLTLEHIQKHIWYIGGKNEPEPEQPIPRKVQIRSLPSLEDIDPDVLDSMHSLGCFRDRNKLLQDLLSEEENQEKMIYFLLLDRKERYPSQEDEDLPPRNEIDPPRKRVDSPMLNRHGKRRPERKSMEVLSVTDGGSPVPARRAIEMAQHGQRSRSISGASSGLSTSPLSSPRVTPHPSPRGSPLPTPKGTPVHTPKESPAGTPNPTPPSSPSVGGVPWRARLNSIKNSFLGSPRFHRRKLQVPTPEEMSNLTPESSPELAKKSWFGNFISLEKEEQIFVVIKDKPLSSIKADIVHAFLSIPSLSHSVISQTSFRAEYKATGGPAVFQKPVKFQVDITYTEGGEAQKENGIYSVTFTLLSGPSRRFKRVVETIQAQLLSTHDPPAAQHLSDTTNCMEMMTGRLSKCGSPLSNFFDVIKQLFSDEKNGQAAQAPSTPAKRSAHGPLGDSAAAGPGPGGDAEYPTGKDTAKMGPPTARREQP
Sequence of Homeodomain-interacting protein kinase 1 (Homo sapiens) (Q86Z02 whole entry, looked up): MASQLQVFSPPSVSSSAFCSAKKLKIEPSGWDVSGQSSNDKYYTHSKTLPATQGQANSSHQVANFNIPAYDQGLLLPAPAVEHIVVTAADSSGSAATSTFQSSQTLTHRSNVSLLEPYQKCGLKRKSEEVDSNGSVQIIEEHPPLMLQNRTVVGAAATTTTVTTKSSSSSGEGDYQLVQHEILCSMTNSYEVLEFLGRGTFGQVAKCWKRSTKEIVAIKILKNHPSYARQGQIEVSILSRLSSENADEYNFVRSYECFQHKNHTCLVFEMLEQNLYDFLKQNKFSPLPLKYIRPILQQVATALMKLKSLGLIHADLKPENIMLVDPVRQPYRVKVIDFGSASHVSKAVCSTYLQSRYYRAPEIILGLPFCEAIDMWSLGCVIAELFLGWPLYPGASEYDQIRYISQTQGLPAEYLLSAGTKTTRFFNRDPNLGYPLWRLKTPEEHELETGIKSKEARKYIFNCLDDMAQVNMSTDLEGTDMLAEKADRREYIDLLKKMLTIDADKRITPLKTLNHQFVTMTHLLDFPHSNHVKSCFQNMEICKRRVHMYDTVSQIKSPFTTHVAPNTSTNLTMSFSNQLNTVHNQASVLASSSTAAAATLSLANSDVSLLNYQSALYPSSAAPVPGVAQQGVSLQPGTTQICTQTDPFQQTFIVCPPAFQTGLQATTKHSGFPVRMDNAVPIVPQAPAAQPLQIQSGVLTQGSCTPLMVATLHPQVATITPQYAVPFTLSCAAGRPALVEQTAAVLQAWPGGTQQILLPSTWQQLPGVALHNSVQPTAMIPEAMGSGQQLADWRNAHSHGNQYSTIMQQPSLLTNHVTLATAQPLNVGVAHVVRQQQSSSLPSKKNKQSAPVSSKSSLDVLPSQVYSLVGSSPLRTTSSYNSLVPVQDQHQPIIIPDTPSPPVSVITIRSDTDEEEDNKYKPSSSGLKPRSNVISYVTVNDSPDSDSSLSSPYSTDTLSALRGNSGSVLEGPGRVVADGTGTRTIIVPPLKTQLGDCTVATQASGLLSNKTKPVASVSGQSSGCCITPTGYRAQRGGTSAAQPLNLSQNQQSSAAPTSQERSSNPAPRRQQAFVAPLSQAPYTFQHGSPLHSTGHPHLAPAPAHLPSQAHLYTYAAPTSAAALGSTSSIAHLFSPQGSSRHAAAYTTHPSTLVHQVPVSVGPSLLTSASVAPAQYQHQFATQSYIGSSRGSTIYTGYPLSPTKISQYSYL
Sequence of Serine/threonine-protein kinase WNK1 (Homo sapiens) (Q9H4A3 whole entry, looked up): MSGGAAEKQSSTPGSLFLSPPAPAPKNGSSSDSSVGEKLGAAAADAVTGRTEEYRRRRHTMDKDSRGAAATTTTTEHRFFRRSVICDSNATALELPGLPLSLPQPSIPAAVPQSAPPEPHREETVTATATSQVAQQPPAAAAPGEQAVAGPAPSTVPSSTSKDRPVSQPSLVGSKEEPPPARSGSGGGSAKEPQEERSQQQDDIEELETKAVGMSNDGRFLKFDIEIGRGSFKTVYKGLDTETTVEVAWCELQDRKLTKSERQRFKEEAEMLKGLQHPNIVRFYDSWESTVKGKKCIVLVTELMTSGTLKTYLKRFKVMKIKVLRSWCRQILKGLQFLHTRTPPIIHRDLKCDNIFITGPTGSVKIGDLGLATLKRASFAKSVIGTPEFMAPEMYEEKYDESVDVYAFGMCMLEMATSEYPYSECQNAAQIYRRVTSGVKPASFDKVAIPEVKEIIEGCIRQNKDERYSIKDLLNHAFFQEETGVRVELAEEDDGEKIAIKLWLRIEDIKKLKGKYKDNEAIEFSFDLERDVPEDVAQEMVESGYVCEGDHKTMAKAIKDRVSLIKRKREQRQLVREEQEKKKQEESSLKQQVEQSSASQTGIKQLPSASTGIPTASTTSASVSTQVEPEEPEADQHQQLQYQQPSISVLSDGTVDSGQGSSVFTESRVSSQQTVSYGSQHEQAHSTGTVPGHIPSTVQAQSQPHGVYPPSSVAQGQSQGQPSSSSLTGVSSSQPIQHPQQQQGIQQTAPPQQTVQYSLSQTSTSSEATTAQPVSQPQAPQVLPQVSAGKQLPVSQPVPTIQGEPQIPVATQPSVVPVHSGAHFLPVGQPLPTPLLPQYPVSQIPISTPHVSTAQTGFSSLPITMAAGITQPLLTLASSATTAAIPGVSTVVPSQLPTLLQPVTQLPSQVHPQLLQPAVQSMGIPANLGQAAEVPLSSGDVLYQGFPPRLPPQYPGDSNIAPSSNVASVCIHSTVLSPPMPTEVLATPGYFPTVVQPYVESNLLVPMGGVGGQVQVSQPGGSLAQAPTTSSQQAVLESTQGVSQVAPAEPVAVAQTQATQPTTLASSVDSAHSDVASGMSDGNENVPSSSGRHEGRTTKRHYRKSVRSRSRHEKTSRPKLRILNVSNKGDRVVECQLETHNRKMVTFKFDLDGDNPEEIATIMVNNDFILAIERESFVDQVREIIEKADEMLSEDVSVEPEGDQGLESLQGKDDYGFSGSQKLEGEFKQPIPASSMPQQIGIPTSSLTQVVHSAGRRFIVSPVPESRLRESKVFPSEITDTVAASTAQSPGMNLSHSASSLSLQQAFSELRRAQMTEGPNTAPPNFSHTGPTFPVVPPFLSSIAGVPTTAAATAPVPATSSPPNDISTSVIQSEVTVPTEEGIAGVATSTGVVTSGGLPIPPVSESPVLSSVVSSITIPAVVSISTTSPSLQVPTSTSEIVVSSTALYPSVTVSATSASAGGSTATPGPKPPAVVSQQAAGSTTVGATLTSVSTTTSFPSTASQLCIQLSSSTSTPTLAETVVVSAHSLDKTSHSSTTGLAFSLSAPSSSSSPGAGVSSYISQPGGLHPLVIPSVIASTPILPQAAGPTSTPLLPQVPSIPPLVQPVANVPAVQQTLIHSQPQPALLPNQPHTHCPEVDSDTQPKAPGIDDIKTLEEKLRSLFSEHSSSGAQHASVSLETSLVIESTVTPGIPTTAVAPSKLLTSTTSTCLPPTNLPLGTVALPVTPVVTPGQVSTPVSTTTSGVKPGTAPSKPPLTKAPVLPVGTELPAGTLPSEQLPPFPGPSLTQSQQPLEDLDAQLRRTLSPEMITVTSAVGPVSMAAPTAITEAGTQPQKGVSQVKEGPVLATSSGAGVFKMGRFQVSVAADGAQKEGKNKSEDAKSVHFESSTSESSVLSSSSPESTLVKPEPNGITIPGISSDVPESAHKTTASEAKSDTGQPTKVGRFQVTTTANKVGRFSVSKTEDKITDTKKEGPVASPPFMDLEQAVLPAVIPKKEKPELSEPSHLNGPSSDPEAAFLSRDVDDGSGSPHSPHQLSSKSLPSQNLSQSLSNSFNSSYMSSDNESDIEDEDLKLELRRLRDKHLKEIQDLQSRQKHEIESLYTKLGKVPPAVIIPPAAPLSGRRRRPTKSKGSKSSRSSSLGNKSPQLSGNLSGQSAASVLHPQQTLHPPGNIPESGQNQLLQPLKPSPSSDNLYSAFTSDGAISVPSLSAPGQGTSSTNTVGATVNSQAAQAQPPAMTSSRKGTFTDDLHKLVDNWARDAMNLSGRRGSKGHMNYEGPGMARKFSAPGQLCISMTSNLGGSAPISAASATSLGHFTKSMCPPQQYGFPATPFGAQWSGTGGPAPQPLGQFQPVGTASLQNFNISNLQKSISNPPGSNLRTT

CN(C)C(=O)Cn1cc(-c2nc(C3(c4ccc(-c5cnc(N)nc5)cc4)CC3)no2)cn1 [BI 0153]
inactive: residual activity [1] 77% | residual activity [2] 97% | residual activity [3] 63% | inhibition [4] 31.5% | residual activity [5] 95% | residual activity [6] 93% | residual activity [7] 96% | inhibition [8] 9.74%

CN(C)C(=O)Cn1cc(-c2nc([C@@](C)(c3ccc(-c4cnc(N)nc4)cc3)C3CC3)no2)cn1 [BI 665915]
inactive: residual activity [1] 100% | residual activity [2] 94% | residual activity [3] 96% | inhibition [4] 6.78% | residual activity [5] 100% | residual activity [6] 98% | residual activity [7] 100% | inhibition [8] 0.496%
